Assay [1] concerns antennae of Maruca vitrata females. Description: GC-EAD: antennal response of female moths to floral volatiles. The note with it: volatiles of V. unguiculata flower buds/flowers. The procedure: Headspace collections were initially analyzed by an Agilent Technologies 7890A GC with a flame ionization detector (FID) coupled with an electroantennogram detector (Syntech, Hilversum, The Netherlands) followed the procedures as described by with some modifications. The column was kept at 50°C for 1 min, increased to 200°C at a rate of 10°C/min and then increased to 240°C at a rate of 5°C/min, which was maintained for 5 min. The outlet of the GC column was split with a specific Electronic Pressure Control splitter (Agilent) to obtain the requested flow accuracy in a ratio of 1: 3 for the FID and the cut antenna. Volatile compounds eluting from the GC column were led to the mounted antenna through a heated (230°C) transfer line (TC-02, Syntech, Hilversum, the Netherlands). Each antenna was prepared by cutting both distal and basic segments and was immediately mounted on the holder using conductive gel (Spectra® 360; Parker Laboratories, Fairfield, New Jersey, USA). Each sample was tested five times. Each tested antenna was derived from a different female and used only once. Synthetic chemicals used in the experiments were purchased from Sigma Chemical Co., J&K Scientific Ltd., Tokyo Chemical Industry Co., Sinopharm Chemical Reagent Co. and Aladdin Chemistry Co., respectively.

A further assay has as its system Maruca vitrata females. As to the kind of experiment: Field trapping experiment with volatile-baited Delta-traps. In kind it is in vivo. The settings on record: 100 μl of 100 ng/μl in hexane on rubber septa, one week, six traps, Student's t-test. The protocol: Field trap experiments were determined as described by Wang et al. Custom-built Delta-traps with sticky inserts and rubber septa purchased from Pherobio Technology Co. Ltd. were used in the field experiments during the moth flight season in 2014. Traps were suspended from iron stakes and placed approximately 15 m apart. Key components of host-plant volatiles were prepared in hexane, and 100 μl solution (100 ng/μl) were added to rubber septa to be used as lures. Hexane was used as blank control and six trap replicates were used in the field experiment. Traps were checked everyday and the number of female moths per trap was determined for one week. Statistical analyses of trap data were used SPSS (SPSS Inc., Chicago, Illinous, U.S.A.), the significance of the differences between tested group and control group was evaluated by Student's t-test at P < 0.05 and P < 0.01.

For the next assay, the target named is MvitGOBP1 (Maruca vitrata, UniProt A0A0S1S6H9). Description: Fluorescence competitive binding assay (1-NPN displacement) with recombinant MvitGOBP1. The procedure:
(§1) Fluorescence binding activity was determined as described by previous study. Emission fluorescence spectra were recorded on a Hitachi F-4500 at 25°C in a right angle configuration, with a 1 cm light path quartz cuvette and 5 nm slits for both excitation and emission. The protein was dissolved in 20 mM Tris-HCl buffer, pH 7.4, and ligands were added as 1 mM methanol solutions. To measure the affinity of the fluorescent ligand 1-NPN to MvitGOBP1-2, a 2 μM protein solution in 20 mM Tris-HCl (pH 7.4) was titrated with aliquots of […] ligand in methanol to final concentrations of 2–16 μM. The probe was excited at 337 nm and emission spectra were recorded between 380 and 450 nm. The affinities of the other ligands were measured in competitive binding assays, where a solution of the protein and 1-NPN, both at a concentration of 2 μM, was titrated with 1 mM methanol solutions of each competitor over concentration ranges of 2–24 μM, depending on the ligand. The dissociation constant for 1-NPN and the stoichiometry of binding were obtained by processing the data using Prism software. Dissociation constants of the competitors were calculated from the corresponding IC50 values (concentrations of ligands halving the initial fluorescence value of 1-NPN), using the equation: Ki = [IC50] / (1 + [1-NPN] / K1-NPN), where [1-NPN] is the free concentration of 1-NPN and K1-NPN is the dissociation constant of the complex protein/1-NPN.

The next assay deals with MvitGOBP2 (Maruca vitrata, UniProt A0A088MJX9). As to the kind of experiment: Fluorescence competitive binding assay (1-NPN displacement) with recombinant MvitGOBP2. The settings on record: for binding ability to MvitGOBP2 (in words): among the 17 tested compounds. The procedure: as §1
MvitGOBP2, sequence (A0A088MJX9 entry or part of it): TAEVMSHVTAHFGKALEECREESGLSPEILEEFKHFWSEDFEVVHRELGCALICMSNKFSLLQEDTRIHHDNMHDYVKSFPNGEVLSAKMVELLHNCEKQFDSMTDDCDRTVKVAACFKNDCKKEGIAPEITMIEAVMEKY
The subject of the next assay is M. vitrata females. On the set-up: method as in earlier work. The settings on record: cited from earlier work.
The mark [2] stands for this setting: dissociation constant calculated from IC50, 1-NPN competition, read-out: MvitGOBP1 Ki.
Where [3] appears, read: ligand concentration displacing 50% of fluorescence of MvitGOBP1/1-NPN complex, protein and 1-NPN 2 μM, pH 7.4, 25°C, read-out: MvitGOBP1 IC50.
Where [4] appears, read: dissociation constant calculated from IC50, 1-NPN competition, read-out: MvitGOBP2 Ki.
The mark [5] stands for this setting: ligand concentration displacing 50% of fluorescence of MvitGOBP2/1-NPN complex, protein and 1-NPN 2 μM, pH 7.4, 25°C, read-out: MvitGOBP2 IC50.
Setting [6] is: '-' = exceeded 50 μM for half-maximal inhibition, read-out: MvitGOBP2 IC50 (class symbol).

The values that follow come from paper PMC4627759, “Identification of Host-Plant Volatiles and Characterization of Two Novel General Odorant-Binding Proteins from the Legume Pod Borer, Maruca vitrata Fabricius (Lepidoptera: Crambidae)” (PLoS ONE, 2015).

Structures are written as SMILES. pIC50, pKi: −log10 of the molar value. “Also recorded” adds a separate entry of the source. Read-outs that look alike come from different tables or passages of the source.

MvitGOBP1, sequence (A0A0S1S6H9 entry or part of it): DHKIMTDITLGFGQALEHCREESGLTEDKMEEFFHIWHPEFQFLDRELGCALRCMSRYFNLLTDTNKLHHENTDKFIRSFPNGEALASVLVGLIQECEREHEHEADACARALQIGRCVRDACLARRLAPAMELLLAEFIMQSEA

For the compound `CC(=O)c1ccc(C)cc1C` [1-(2,4-Dimethylphenyl)-ethanone], the “EAD/EAG response of female antennae (in words)” value (“EAD/EAG response” below) in assay [1] is on record as “responded”.

Take `CCc1ccc(C(C)=O)cc1` [1-(4-ethylphenyl)-ethanone]: the “EAD/EAG response” value in assay [1] is recorded as “responded; also recorded: highest EAD responses”.

By pKi is commonly meant the Ki on a negative log10 scale, so that one unit is a factor of ten. For orientation: pIC50 means the negative decadic logarithm of the IC50, by convention in mol/L. Turning to `CCCCOC(=O)CCC` [Compound 1, Butanoic acid butyl ester], the “EAD/EAG response” value in assay [1] was “responded”. In addition, the “female moths caught in traps vs blank lure” value with Maruca vitrata females is “significant difference compared with the blank lure”. Besides, the values for the pKi on MvitGOBP1 (setting [2]) and at MvitGOBP2 (setting [4]) were 4.90 and 4.53, respectively. Besides, the negative logarithm of the IC50 (pIC50) was 4.77 at MvitGOBP1 (setting [3]) and 4.35 on MvitGOBP2 (setting [5]).

Turning to `Oc1cccc2[nH]ccc12` [Compound 1H-indol-4-ol], the “EAD/EAG response” value in assay [1] is given as “responded”. For the same compound, in the assay with Maruca vitrata females, the “female moths caught in traps vs blank lure” value was “significant difference compared with the blank lure”. In the assay on M. vitrata females, the “attraction of females in wind tunnel (in words)” value (from here on “attraction of females”) is listed as “significantly attracted many M. vitrata females”.

For the compound `C=C(C)[C@H]1CC=C(C)CC1` [Compound 2, Limonene], in assay [1], the “EAD/EAG response” value is listed as “responded”. Also, the “female moths caught in traps vs blank lure” value in the assay on Maruca vitrata females (listed as Limonene) is given as “most female moths were trapped”; in the assay with Maruca vitrata females (listed as limonene), “significant difference compared with the blank lure; also recorded: highest trapping effect”. The negative-log Ki (pKi) on MvitGOBP1 (setting [2]) is 4.86; on MvitGOBP2 (setting [4]), 4.53. The figures for the negative-log IC50 (pIC50) on MvitGOBP1 (setting [3]) and on MvitGOBP2 (setting [5]) were 4.73 and 4.36, respectively. In addition, the “attraction of females” value in the assay with M. vitrata females is listed as “significantly attracted many M. vitrata females; also recorded: strong behavioral activity”.

In the case of `CCc1cccc(CC)c1` [Compound 3, 1,3-diethylbenzene], the results for the pKi on MvitGOBP1 (setting [2]) and on MvitGOBP2 (setting [4]) were 4.54 and 4.65, respectively. Besides, the figures for the negative logarithm of the IC50 (pIC50) on MvitGOBP1 (setting [3]) and on MvitGOBP2 (setting [5]) were 4.41 and 4.47, respectively.

On to `CCc1ccc(CC)cc1` [Compound 4, 1,4-diethylbenzene], for which the pKi on MvitGOBP1 (setting [2]) is 4.72; on MvitGOBP2 (setting [4]), 4.57. In addition, the negative logarithm of the IC50 (pIC50) on MvitGOBP1 (setting [3]) was 4.59; on MvitGOBP2 (setting [5]), 4.39.

For `CCc1ccc(C=O)cc1` [Compound 4-ethylbenzaldehyde], in assay [1], the “EAD/EAG response” value was “responded”.

Take `CCC(=O)c1ccc(CC)cc1` [Compound 4-ethylpropiophenone]: the “female moths caught in traps vs blank lure” value in the assay with Maruca vitrata females is given as “significant difference compared with the blank lure”.

For the compound `O=Cc1ccccc1` [Compound 5, Benzaldehyde], the “EAD/EAG response” value in assay [1] is “responded”. Further, the pIC50 at MvitGOBP1 is 4.65; at MvitGOBP2, less than 4.30. Also, at MvitGOBP1, the pKi is 4.78.

Regarding `CC(=O)c1ccccc1` [Compound 6, Acetophenone], the pKi at MvitGOBP1 (setting [2]) is 4.67; at MvitGOBP2 (setting [4]) it was 4.58. Further, the values for the negative logarithm of the IC50 (pIC50) on MvitGOBP1 (setting [3]) and on MvitGOBP2 (setting [5]) were 4.55 and 4.40, respectively.

As for `O=Cc1ccccc1O` [Compound 7, 2-hydroxybenzaldehyde], at MvitGOBP1, the pIC50 is 4.68 and the pKi is 4.81. On MvitGOBP2, the pIC50 is 4.38 and the pKi was 4.64.

As for `CCc1ccc(C=O)cc1` [Compound 8, 4-ethylbenzaldehyde], the values for the negative-log Ki (pKi) on MvitGOBP1 (setting [2]) and on MvitGOBP2 (setting [4]) were 4.85 and 4.48, respectively. Also, the figures for the pIC50 at MvitGOBP1 (setting [3]) and on MvitGOBP2 (setting [5]) were 4.72 and 4.30, respectively.

On to `CCCCCCCCOC(=O)CCC` [Compound 9, Butanoic acid octyl ester], for which the entries for the “EAD/EAG response” value in assay [1] (listed as Butanoic acid octyl ester) and in assay [1] (listed as butanoic acid octyl ester) were “EAG response was weaker than other plant volatiles” and “responded”, respectively. In the assay with Maruca vitrata females, the “female moths caught in traps vs blank lure” value is “significant difference compared with the blank lure”. In addition, the negative logarithm of the Ki (pKi) at MvitGOBP1 (setting [2]) is 4.57; on MvitGOBP2 (setting [4]), 5.07. In addition, the negative logarithm of the IC50 (pIC50) was 4.44 at MvitGOBP1 (setting [3]) and 4.89 at MvitGOBP2 (setting [5]). Besides, the “binding ability to MvitGOBP2 (in words)” value at MvitGOBP2 was “very great bind ability”.

With `CCc1ccc(C(C)=O)cc1` [Compound 10, 1-(4-ethylphenyl)-ethanone], the results for the pIC50 at MvitGOBP1 and at MvitGOBP2 were 4.64 and 4.35, respectively. Besides, the figures for the pKi on MvitGOBP1 and on MvitGOBP2 were 4.77 and 4.53, respectively.

Take `CC(C=O)Cc1ccccc1` (centres unmarked) [Compound 11, 2-methyl-3-phenylpropanal]: in assay [1], the “EAD/EAG response” value is on record as “responded; also recorded: high electrophysiological responses”. Also, the “female moths caught in traps vs blank lure” value in the assay on Maruca vitrata females is “significant difference compared with the blank lure”. Further, the negative-log Ki (pKi) was 4.75 at MvitGOBP1 (setting [2]) and 5.42 at MvitGOBP2 (setting [4]). Besides, the negative-log IC50 (pIC50) at MvitGOBP1 (setting [3]) was 4.62; at MvitGOBP2 (setting [5]), 5.16. Further, the “attraction of females” value in the assay with M. vitrata females is reported as “attract significantly M. vitrata females”. The “binding ability to MvitGOBP2 (in words)” value at MvitGOBP2 is given as “highest bind ability”.

For the compound `CC(=O)c1ccc(C)cc1C` [Compound 12, 1-(2,4-Dimethylphenyl)-ethanone], the pKi on MvitGOBP1 (setting [2]) is 4.74. Also, the pIC50 at MvitGOBP1 (setting [3]) was 4.62; on MvitGOBP2 (setting [6]) it was less than 4.30.

`CCC(=O)c1ccc(CC)cc1` [Compound 13, 4-ethylpropiophenone]: the negative-log Ki (pKi) at MvitGOBP1 (setting [2]) is 4.82; at MvitGOBP2 (setting [4]) it was 4.58. For the same compound, the figures for the pIC50 on MvitGOBP1 (setting [3]) and at MvitGOBP2 (setting [5]) were 4.69 and 4.41, respectively.

For `CC(=O)c1ccc(O)c(C)c1` [Compound 14, 4-hydroxy-3-methylacetophenone], the pKi at MvitGOBP1 (setting [2]) was 4.74; on MvitGOBP2 (setting [4]) it was 4.77. Moreover, the figures for the negative logarithm of the IC50 (pIC50) on MvitGOBP1 (setting [3]) and on MvitGOBP2 (setting [5]) were 4.61 and 4.59, respectively.

In the case of `Oc1cccc2[nH]ccc12` [Compound 15, 1H-indol-4-ol], the pKi on MvitGOBP1 (setting [2]) was 4.96. The pIC50 was 4.84 at MvitGOBP1 (setting [3]) and less than 4.30 at MvitGOBP2 (setting [6]).

With `CC(=O)c1ccc(C(C)=O)cc1` [Compound 16, 1,4-diacetyl benzene], at MvitGOBP1, the pIC50 was 4.52 and the pKi was 4.64. Also, on MvitGOBP2, the negative logarithm of the IC50 (pIC50) is 4.30 and the pKi was 4.48.

`Cc1cc(C)cc(C(C)(C)C)c1` [Compound 17, 1-(1,1-Dimethylethyl)-3,5-dimethylbenzene]: the pKi on MvitGOBP1 (setting [2]) was 4.78. For the same compound, the negative-log IC50 (pIC50) was 4.65 on MvitGOBP1 (setting [3]) and less than 4.30 on MvitGOBP2 (setting [6]).
